Results: PMC4337230 (The journal of physical chemistry. B, 2010)

Molecular target: T1, Lysine 2,3-aminomutase (LAM) (Clostridium subterminale, UniProt Q9XBQ8)
T1 sequence (Q9XBQ8 1-416): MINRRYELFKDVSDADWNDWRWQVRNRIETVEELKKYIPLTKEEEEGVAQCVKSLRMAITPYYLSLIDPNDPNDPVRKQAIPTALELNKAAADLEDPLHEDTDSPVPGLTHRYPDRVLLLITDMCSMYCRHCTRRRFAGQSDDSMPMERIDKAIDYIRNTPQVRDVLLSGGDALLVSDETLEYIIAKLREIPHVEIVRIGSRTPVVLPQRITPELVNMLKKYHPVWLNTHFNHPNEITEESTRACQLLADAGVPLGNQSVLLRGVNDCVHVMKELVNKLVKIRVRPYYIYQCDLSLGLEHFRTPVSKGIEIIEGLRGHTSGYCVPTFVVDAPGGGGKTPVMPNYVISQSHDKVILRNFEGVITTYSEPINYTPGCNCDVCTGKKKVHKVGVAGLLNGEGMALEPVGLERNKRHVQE
Experiment: activation of L-alanine […],3-aminomutation, PITC-HPLC
Assay type: biochemical
Conditions: 200000 µM; activator; 0.2 M L-alanine, 0.16 mM SAM, pH 8.0, 37 °C, anaerobic

Structure (SMILES): CN [methylamine]
- fold acceleration at 0.2 M: 27 fold
